According to paper PMC7770833, “Design, Synthesis, and Biological Evaluation of a Series of Oxazolone Carboxamides as a Novel Class of Acid Ceramidase Inhibitors” (Journal of Medicinal Chemistry, 2020):

Assays:
hAC = target: T1, hAC (Homo sapiens, UniProt Q13510); test: hAC LC/MS-based activity assay in SH-SY5Y cells; type: cell-based; set-up: host or cells: SH-SY5Y human neuroblastoma cells; settings: 1, 2.5, 5, 10 μM for 3 h; 10 μM for 1, 3, 6 h
T1 sequence (Q13510 22-395): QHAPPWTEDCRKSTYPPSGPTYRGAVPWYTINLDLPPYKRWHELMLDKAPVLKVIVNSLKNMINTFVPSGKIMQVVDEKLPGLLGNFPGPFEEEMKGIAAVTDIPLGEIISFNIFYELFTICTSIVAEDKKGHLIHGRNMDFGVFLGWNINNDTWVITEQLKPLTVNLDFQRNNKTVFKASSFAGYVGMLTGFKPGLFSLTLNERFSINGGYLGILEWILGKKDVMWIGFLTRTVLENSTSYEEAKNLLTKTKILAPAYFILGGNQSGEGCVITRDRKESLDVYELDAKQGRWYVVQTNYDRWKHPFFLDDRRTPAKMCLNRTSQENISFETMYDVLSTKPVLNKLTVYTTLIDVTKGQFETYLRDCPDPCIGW
Description: (§1) SH-SY5Y cells were purchased from Sigma Aldrich (Italy) and cultured in DMEM containing 10% FBS at 37 °C and 5% CO2. Drugs were dissolved in DMSO (10 mM) and diluted in cell culture medium with reduced serum (1%) for cell treatments.
hAC activity measurement was performed as previously described.[59],[61] Total lysates from cells were diluted in assay buffer (100 mM sodium phosphate, 0.1% Nonidet P-40, 150 mM NaCl, 3 mM DTT, 100 mM sodium citrate, pH 4.5). Reactions were started by the addition of 50 μM N-lauroyl ceramide (Nu-Chek Prep, Elysian, MN) and carried out for 1 h at 37 °C. Reactions were stopped by the addition of a mixture of CHCl3/MeOH (2:1) spike with 11-lauroleic acid (1.0 nmol, NuChek Prep). The organic phases were collected, dried under N2, and analyzed by UPLC/MS (Acquity, Waters) in the negative-ion mode monitoring the reaction product (lauric acid, m/z: 199) using 11-lauroleic acid as the internal standard. Lipids were eluted on an Acquity UPLC BEH C18 column (50 mm length, 2.1 mm ID, 1.7 μm pore size, Waters) column at 0.5 mL/min for 1.5 min with a gradient of CH3CN and H2O, both containing 0.25% AcOH and 5 mM NH4OAc (70–100% CH3CN in 0.5 min, 100% CH3CN for 0.5 min, 70% CH3CN for 0.4 min). The column temperature was 40 °C. […] The [M – H]^− ion was monitored in the selected-ion monitoring mode (m/z values: lauric acid 199, 11-lauroleic acid 197.35). […]

[1] = system: human neuroblastoma SH-SY5Y cells; test: Sphingolipid levels in SH-SY5Y cells (LC/MS); type: cell-based
Description: as §1
Lipid extraction and SL measurements were performed as previously described.[59],[61],[75] Lipids were extracted with a CHCl3/MeOH mixture (2:1, 3 mL) spike with internal standards. The organic phase was collected, dried under N2, and dissolved in CHCl3/MeOH (1:3) for LC/MS analyses. Ceramides and sphingosine were analyzed by LC/MS/MS, using a Waters Acquity UPLC coupled to a Waters Xevo triple quadrupole mass spectrometer (TQMS) and interfaced with an ESI ion source. Separation was performed on a Waters Acquity BEH C18 1.7 μm column (2.1 × 50 mm) at 60 °C. A linear gradient of 0.1% HCOOH in CH3CN/i-PrOH (20:80) as solvent B in 0.1% HCOOH in CH3CN/H2O (20:80) as solvent A and was applied at a flow rate of 0.4 mL/min. The detection of SLs was performed in positive ion mode. Capillary voltage was 3.5 kV and cone voltage was 25 V. The source temperature and desolvation temperatures were set at 120 and 600 °C, respectively. Desolvation gas and cone gas (N2) flows were 800 and 20 L/h, respectively. Ceramides were identified by comparison of their LC retention times and MS/MS fragmentation patterns with those of authentic standards (Avanti Polar Lipids). Multiple reaction monitoring (MRM) ion chromatograms were used to quantify dihydroceramide (Cer(d18:0/16:0), Rt = 4.6 min, m/z: 540.5 > 522.5), palmitoyl ceramide (Cer(d18:1/16:0), Rt = 4.5 min, m/z: 520.3 > 264.2) sphingosine (So(d18:1), Rt = 2.6 min, m/z: 300.2 > 282.2), sphingomyelin (SM(d18:1/16:0), Rt = 4.2 min, m/z: 703.2 > 184.1) and hexosylceramide (HexCer (d18:1/16:0), 4.3 min, m/z: 682.2 > 264.2). Detection and analysis were controlled by Waters MassLynx software version 4.1. Calibration curves were prepared for every experiment.

Question: Which results are given for `CCCCCNC(=O)n1cc(-c2ccc(F)cc2C2CCN(C)CC2)oc1=O` [Compound 32b, 5-[4-Fluoro-2-(1-methyl-4-piperidyl)phenyl]-2-oxo-N-pentyl-oxazole-3-carboxamide]?
Answer: hAC activity in SH-SY5Y cells (hAC): time-dependent reduction; Cer (d18:0/16:0) level ([1]; 10 μM, time course up to 6 h): increased; Cer (d18:1/16:0) level ([1]; 10 μM, time course up to 6 h): increased; HexCer (d18:1/16:0) level ([1]; 10 μM, time course up to 6 h): No major variations; SM (d18:1/16:0) level ([1]; 10 μM, time course up to 6 h): No major variations; So levels ([1]; 10 μM, time course up to 6 h): decreased; Cer (d18:0/16:0) level ([1]; 3 h incubation, 1-10 μM): accumulation; Cer (d18:1/16:0) level ([1]; 3 h incubation, 1-10 μM): accumulation; HexCer (d18:1/16:0) level ([1]; 3 h incubation, 1-10 μM): no major variations; SM (d18:1/16:0) level ([1]; 3 h incubation, 1-10 μM): no major variations; So levels ([1]; 3 h incubation, 1-10 μM): decrease
